Measurements as given in EP0355353A2, “Cycloalkylthiazole derivatives” (F. HOFFMANN-LA ROCHE AG, priority 1988, dated 1990).

Experiments:
[1] = system: LTD₄-Induced Bronchoconstriction; assay: Leukotriene-Induced Bronchoconstriction in Guinea Pigs - in vivo leukotriene D₄ (LTD) antagonist test, intravenous and oral testing; design: LTD₄-Induced Bronchoconstriction (ID₅₀) i.v. / LTD₄-Induced Bronchoconstriction (ID₅₀) p.o.: unit not given here; details: for Duration 10 mg/kg p.o. 4 hr.: inhibition with LTD challenge 4 hr. after administration; for Duration 10 mg/kg p.o. 8 hr.: inhibition with LTD challenge 8 hr. after administration; for Duration 10 mg/kg p.o. 18 hr.: inhibition with LTD challenge 18 hr. after administration; for inhibition at 10 mg/kg / inhibition at 1 mg/kg: Cavia porcellus; for inhibition at 10 mg/kg: 2 h, two hours prior to LTD challenge (25 µg/kg i.v.); for Duration 10 mg/kg p.o. 4 hr. / Duration 10 mg/kg p.o. 8 hr. / Duration 10 mg/kg p.o. 18 hr. / inhibition at 10 mg/kg: 10 mg/kg p.o.; for inhibition at 1 mg/kg: iv, 1 mg/kg i.v., 1 minute before LTD challenge (25 µg/kg i.v.), change in tracheal pressure; for LTD₄-Induced Bronchoconstriction (ID₅₀) i.v.: intravenous route; for LTD₄-Induced Bronchoconstriction (ID₅₀) i.v. / LTD₄-Induced Bronchoconstriction (ID₅₀) p.o.: increasing doses, value in parentheses; for LTD₄-Induced Bronchoconstriction (ID₅₀) p.o.: oral route, two hours prior to challenge
Protocol: Leukotriene-Induced Bronchoconstriction in Guinea Pigs - In vivo leukotriene D₄ (LTD) antagonist test
Intravenous and Oral Testing
Male guinea pigs (Hartley strain Charles River) weighing 300-500 g were anesthetized with urethane (∼2 g/kg) intraperitoneally and a polyethylene cannula was inserted into the jugular vein for intravenous drug administration. Tracheal pressure (cm of H₂0) was recorded from a Statham pressure transducer (P 32 AA). Propranolol was administered 5 minutes prior to challenge with LTD. Two minutes later spontaneous breathing was arrested with succinylcholine chloride (1.2 mg/kg) administered intravenously and the animals were ventilated with a Harvard (Model #680) small animal respirator set a 40 breaths/min and 4.0 cc stroke volume. Control vehicle or test drug was administered through the cannula into the jugular vein 1 minute before the animals were challenged intravenously with a maximum constrictory dose of LTD (25 µg/kg) given intravenously. The change in tracheal pressure was averaged for control and drug-treated animals and percent inhibition was calculated. For determination of oral activity, animals were dosed with test compound or vehicle two hours prior to challenge with LTD (25 µg/kg. i.v.).
The relative potency (ID₅₀ values) of test compounds administered by the intravenous and oral route was determined by administering increasing doses of test compound. For determination of the time course of inhibition for various compounds, the time between administration of compound and challenge with LTD was varied. The time course of activity was calculated as the time when inhibition decreased to 40%.

Leukotriene D₄ Receptor = target: T1, Leukotriene D₄ Receptor (Cavia porcellus, UniProt Q2NNR5); assay: Leukotriene D₄ Receptor Binding Assay (Guinea Pig Lung Homogenate), displacement of ³H-LTD₄; details: guinea pig lung membrane homogenate, 3.5 nM ³H-LTD₄, 20°C, 30 minutes; read-out: LTD₄ Binding IC₅₀
T1 construct: from tissue; host or cells: guinea pig lung crude membrane fraction
T1 sequence (Q2NNR5 1-340): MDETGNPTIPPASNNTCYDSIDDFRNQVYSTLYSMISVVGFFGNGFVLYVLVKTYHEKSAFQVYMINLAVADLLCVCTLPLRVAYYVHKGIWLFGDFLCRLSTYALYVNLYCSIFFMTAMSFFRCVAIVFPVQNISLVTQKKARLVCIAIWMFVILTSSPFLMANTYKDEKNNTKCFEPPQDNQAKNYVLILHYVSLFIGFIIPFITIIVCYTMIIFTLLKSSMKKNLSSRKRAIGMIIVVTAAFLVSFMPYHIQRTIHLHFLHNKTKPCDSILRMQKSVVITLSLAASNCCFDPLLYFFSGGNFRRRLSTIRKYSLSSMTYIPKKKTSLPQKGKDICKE
Protocol: Leukotriene D₄ Receptor Binding Assay (Guinea Pig Lung Homogenate) […]
a) Preparation of membrane homogenate
Male albino guinea pigs (Hartley strain, 400-500 g body weight) were sacrificed by decapitation. The lungs were removed, frozen in liquid nitrogen and stored at -70° until use. The frozen tissue (5 g) was thawed, minced into small pieces and rinsed in phosphate-buffered saline. The tissue was placed in 40 ml homogenization buffer containing 0.25 M sucrose, 10 mM Tris-HCl, (pH 7.5), and the following protease inhibitors: soybean trypsin inhibitor (5 µg/ml) bacitracin (100 µg/ml), benzamidine (10⁻³M) and phenylmethylsulfonyl fluoride ([…]). The protease inhibitors were included to inhibit proteolysis during the processes of homogenization and centrifugation. The tissue was then homogenized at 0-4°C with a Brinkman PT-20 polytron for a total of 1 minute (10 second pulses at a setting of 6). The homogenate was centrifuged (1000 x g for 10 minutes) to remove tissue clumps, unbroken cells and nuclei. The supernatant was recentrifuged at 30,000 x g for 30 minutes to yield pellets which were referred to as crude membrane fractions. This fraction was then resuspended in the incubation buffer (10 mM Pipes buffer, pH 7.5, 50 mM NaCl), homogenized in a Teflon homogenizer and recentrifuged at 30,000 x g for 30 minutes. The pellets were finally resuspended in the incubation buffer with a Teflon homogenizer at a concentration of 10 to 20 mg/ml of protein in the suspension. The concentrations of proteins were determined using the Biorad reaction kit. […]
b) Receptor-Ligand Binding Assay
Optimum assay conditions were determined with an assay mixture containing: Tyrode solution; 0.1% bovine serum albumin (BSA); 1 mM glycine; 1 mM cysteine; 3.5 nM ³H-LTD₄ and the membrane preparation (100-200 µg protein) in a final volume of 250 µl. The incubation was carried out at 20°C for 30 minutes. At 20°C, binding increased linearly with protein concentration, reached equilibrium in 20 minutes, was saturable, and reversible upon additions of unlabelled LTD₄. Separation of bound from free ³H-LTD₄ was performed by rapid filtration on GF/C glass fiber filters and washing with two 4 ml aliquots of Tyrode solutions containing 0.1% BSA. Radioactivity remaining on the filters was measured in 10 ml of Aquasol. Specific binding was defined as that displaced by 10⁻⁶M unlabelled LTD₄ and was 95% of total binding.

IC50 (Leukotriene D₄ Receptor)	SMILES	Duration 10 mg/kg p.o. 4 hr. [1]	Duration 10 mg/kg p.o. 8 hr. [1]	Duration 10 mg/kg p.o. 18 hr. [1]	inhibition at 10 mg/kg [1]	inhibition at 1 mg/kg [1]	LTD₄-Induced Bronchoconstriction (ID₅₀) i.v. [1]	LTD₄-Induced Bronchoconstriction (ID₅₀) p.o. [1]
20 nM	CCC(CC)(CC(=O)Nc1cccc(/C=C/c2nc(C3CC3)cs2)c1)C(=O)O [(E)-4-[[3-[2-(4-cyclopropyl-2-thiazolyl)ethenyl]phenyl]amino]-2,2-diethyl-4-oxobutanoic acid]	99±1	95±1	61±6	98 ± 1%	94 ± 2%	0.18	1.1
60 nM	CCC(CC)(CC(=O)Nc1cccc(/C=C/c2nc(C3CCCC3)cs2)c1)C(=O)O [(E)-4-[[3-[2-(4-cyclopentyl-2-thiazolyl)ethenyl]phenyl]amino]-2,2-diethyl-4-oxobutanoic acid]	99+1	98+1	70±7	97 ± 1%	99 ± 1%	0.08	0.34
4000 nM	O=C(O)CCC(=O)Nc1cccc(/C=C/c2nc(C3CC3)cs2)c1 [(E)-4-[[3-[2-(4-cyclopropyl-2-thiazolyl)ethenyl]phenyl]amino]-4-oxobutanoic acid]					15 ± 4%		

Second part, the molecule before the results:

SMILES	IC50 (Leukotriene D₄ Receptor)	Duration 10 mg/kg p.o. 4 hr. [1]	Duration 10 mg/kg p.o. 8 hr. [1]	Duration 10 mg/kg p.o. 18 hr. [1]	inhibition at 10 mg/kg [1]	inhibition at 1 mg/kg [1]	LTD₄-Induced Bronchoconstriction (ID₅₀) i.v. [1]	LTD₄-Induced Bronchoconstriction (ID₅₀) p.o. [1]
CCC(CC)(CC(=O)Nc1cccc(/C=C/c2nc(C3CCCCC3)cs2)c1)C(=O)O [(E)-4-[[3-[2-(4-cyclohexyl-2-thiazolyl)ethenyl]phenyl]amino]-2,2-diethyl-4-oxobutanoic acid]	80 nM	69±12	81±9	38+4	87 ± 6%	96 ± 2%	0.31	0.66
CC(CC(=O)Nc1cccc(/C=C/c2nc(C3CCC3)cs2)c1)C(=O)O (centres unmarked) [(E)-4-[[3-(2-(4-cyclobutyl-2-thiazolyl)ethenyl]phenyl]amino]-2-methyl-4-oxobutanoic acid]	110 nM						(0.61)	
CCC(CC)(CC(=O)Nc1cccc(/C=C/c2nc(C3CCC3)cs2)c1)C(=O)O [(E)-4-[[3-[2-(4-cyclobutyl-2-thiazolyl)ethenyl]phenyl]amino]-2,2-diethyl-4-oxobutanoic acid]	15 nM	100±0	98±1		99 ± 1%	98%	0.13	0.12
